Active and inactive are the calls of the source.
What was measured:
[1] = tested on: Splenocyte; experiment: Induction of IL-4 production in C57BL/6J mouse splenocyte at 1 to 100 nM after 48 hrs by ELISA relative to alpha-GalCer; format: functional, cell-based
[2] = tested on: Splenocyte; experiment: Reduction of IFN-gamma production in C57BL/6J mouse splenocyte at 1 to 100 nM after 48 hrs by ELISA relative to alpha-GalCer; format: functional, cell-based
[3] = molecular target: T1, Antigen-presenting glycoprotein CD1d1 (Mus musculus) (UniProt P11609); experiment: Binding affinity to Ig-tagged mouse CD1d assessed as increase in IL-2 production in NKT hybridoma cells exposed to 24 hrs pre-treated compound/CD1d mixture and measured after 48 hrs by ELISA based APC free assay; format: cell-based
T1 sequence (whole entry): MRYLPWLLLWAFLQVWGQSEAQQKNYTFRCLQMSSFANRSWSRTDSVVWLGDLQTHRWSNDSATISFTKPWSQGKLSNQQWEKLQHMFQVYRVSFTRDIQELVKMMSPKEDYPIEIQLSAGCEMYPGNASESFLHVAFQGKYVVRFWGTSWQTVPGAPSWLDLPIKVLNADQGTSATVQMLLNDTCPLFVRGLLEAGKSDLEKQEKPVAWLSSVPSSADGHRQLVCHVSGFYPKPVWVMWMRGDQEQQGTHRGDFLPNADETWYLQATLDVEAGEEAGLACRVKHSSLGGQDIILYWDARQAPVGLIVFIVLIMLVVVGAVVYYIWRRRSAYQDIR

Measured: Activity

CCCCCCCCCCCCCC[C@@H](O)[C@@H](O)[C@H](CO[C@H]1O[C@H](CO)[C@H](O)[C@H](O)[C@H]1O)NC(=O)CCCCCCCCCCCNC(=O)c1ccc(OC)cc1
active: [1] | [2] | [3] Dose-dependent effect

CCCCCCCCCCCCCC[C@@H](O)[C@@H](O)[C@H](CO[C@H]1O[C@H](CO)[C@H](O)[C@H](O)[C@H]1O)NC(=O)CCCCCCCCCCCNC(=O)C(C)(C)C
active: [1] | [2] | [3] Dose-dependent effect

CCCCCCCCCCCCCC[C@@H](O)[C@@H](O)[C@H](CO[C@H]1O[C@H](CO)[C@H](O)[C@H](O)[C@H]1O)NC(=O)CCCCCCCCCCCNC(=O)c1ccc(F)cc1
active: [1] | [2] | [3] Dose-dependent effect

CCCCCCCCCCCCCC[C@@H](O)[C@@H](O)[C@H](CO[C@H]1O[C@H](CO)[C@H](O)[C@H](O)[C@H]1O)NC(=O)CCCCCCCCCCCNC(=O)c1cccc(OC)c1
active: [1] | [2] | [3] Dose-dependent effect

CCCCCCCCCCCCCC[C@@H](O)[C@@H](O)[C@H](CO[C@H]1O[C@H](CO)[C@H](O)[C@H](O)[C@H]1O)NC(=O)CCCCCCCCCCCNC(=O)C1CCNCC1
active: [1] | [2] | [3] Dose-dependent effect

CCCCCCCCCCCCCC[C@@H](O)[C@@H](O)[C@H](CO[C@H]1O[C@H](CO)[C@H](O)[C@H](O)[C@H]1O)NC(=O)CCCCCCCCCCCNC(=O)c1cccc(F)c1
active: [1] | [2] | [3] Dose-dependent effect

CCCCCCCCCCCCCC[C@@H](O)[C@@H](O)[C@H](CO[C@H]1O[C@H](CO)[C@H](O)[C@H](O)[C@H]1O)NC(=O)CCCCCCCCCCCNC(=O)c1ccccc1OC
active: [1] | [2] | [3] Dose-dependent effect

CCCCCCCCCCCCCC[C@@H](O)[C@@H](O)[C@H](CO[C@H]1O[C@H](CO)[C@H](O)[C@H](O)[C@H]1O)NC(=O)CCCCCCCCCCCNC(=O)C1CCCCC1
active: [1] | [2] | [3] Dose-dependent effect

CCCCCCCCCCCCCC[C@@H](O)[C@@H](O)[C@H](CO[C@H]1O[C@H](CO)[C@H](O)[C@H](O)[C@H]1O)NC(=O)CCCCCCCCCCCNC(=O)c1ccccc1F
active: [1] | [2] | [3] Dose-dependent effect

CCCCCCCCCCCCCC[C@@H](O)[C@@H](O)[C@H](CO[C@H]1O[C@H](CO)[C@H](O)[C@H](O)[C@H]1O)NC(=O)CCCCCCCCCCCNC(=O)c1ccccc1
active: [1] | [2] | [3] Dose-dependent effect

— ChEMBL document CHEMBL4400564, “Structure-activity relationship studies of Bz amide-containing α-GalCer derivatives as natural killer T cell modulators” (Bioorg Med Chem Lett, 2019)
